Results reported in article PMC9918186, “Interaction of Positively Charged Oligopeptides with Blood Plasma Proteins” (International Journal of Molecular Sciences, 2023).

Assays:
[1] = tested on: γ-globulin fraction (GGF); test: Fluorescence quenching of GGF by peptides L1–3; type: binding; conditions: for Stern–Volmer constant Ksv / binding constant Kb / logKb: GGF 1.0 µM, phosphate buffer; for Stern–Volmer constant Ksv: peptide 0.25–2.0 µM, λex 280 nm; for logKb: double log regression; for quenching rate constant kq: from Ksv with τ0 10^−8 s assumed
Method: Fluorescence spectroscopy was carried out to characterize the mechanism of the interaction between three plasma proteins, BSA, AAG, and GGF, with the studied peptides. The fluorescence spectra of protein were collected during titration of L1–L3. The excitation wavelength was set at λ = 280 nm (both Trp and Tyr residues were excited).
To confirm this, the fluorescence data were further analyzed by the Stern–Volmer Equation (1) after correction due to the infer filter effect (2):(1) F0/F=1+kqτ[Q]=1+KSV (2) Fcorr=Fobs10^(Aex+Aem)/2 where F0 and F are the fluorescence intensities (after correction) of the protein and protein in the presence of L1–3, respectively, kq is the quenching rate constant, τ0 the average lifetime, [Q] is the L1–3 concentration, Ksv is the Stern–Volmer constant, and Fcorr, and Fobs are the corrected and observed fluorescence intensities, respectively. Aex and Aem are the absorbance values at excitation and emission wavelengths, respectively. A linear regression fit was used to calculate the value of the Stern–Volmer constant (Ksv). Then, assuming the average lifetime of the fluorophore in the excited state for a biomolecule as 10^−8 s, the quenching rate constant (kq) was computed. For dynamic quenching, the maximum scatters collision quenching rate constant for different quenchers with the biopolymers was reported to be 2 × 10^10 dm^3mol^−1s^−1 [55, 56]. […] Collisional quenching occurs when the excited-state fluorophore is deactivated by contact with some other molecule in solution (by collisions). […] This is a dynamic mechanism of quenching. The quenching constant characterizes the quenching mechanism. The maximum value for collisional quenching is 2 × 10^10 dm^3mol^−1s^−1. […] For further confirmation, measurements were made at, in addition to 297 K, temperatures 303 and 308 K. Experimental data points were fitted and analyzed using Equation (1).
Both for the complexes with BSA and with GGF, the binding constant (Kb) and the binding stoichiometry (n) were calculated. […] The values of Kb and n were calculated from the slope and the intercept of the log [(F0 − F)/F] versus log [Q] plot (Figure 2).
The forces involved in the interaction can be identified by measurement at different temperatures and then by thermodynamic analysis. The signs of the thermodynamic parameters identify the type of interactions. The enthalpy change (ΔH°), the entropic change (ΔS°), and the free energy change (ΔG°) were calculated from Equations (4) and (5):(4) […]=−ΔH^°/RT+ΔS^°/R (5) ΔG^°=ΔH^°−TΔS^°=−RTlnKb where Kb is the binding constant and R is the universal gas constant. To determine the thermodynamic parameters, the van’t Hoff plot was first conducted, i.e., the temperature dependence of the binding constant, according to Equation (4). The Kb values at the three temperatures were fitted by the linear regression method. The values of ΔH and ΔS were calculated from the slope and intercept at the fitted line. Next, the free energy change (ΔG°) was obtained from Equation (5).

[2] = biological target: bovine serum albumin (BSA) (Bos taurus, UniProt P02769); test: Site-marker displacement (phenylbutazone, ibuprofen) on BSA, fluorescence; type: binding; parameters: purchased Sigma Aldrich; conditions: 297 K, BSA 5.0 µM, marker 10.0 µM
Method: To check if L1–L3 bind to BSA at the two Sudlow drug sites (site 1 and 2 [34, 60]), displacement studies were conducted by using phenylbutazone (PHB) and ibuprofen (IBP) as site probes. […] The fluorescence emission spectra of BSA and site markers during the titration of L1–L3 were recorded. The experimental data were analyzed using Equation (3). Binding constants in the presence of site markers were calculated and compared with Kb without PHB or IBP.
Concentrations of BSA and site markers were set at 5.0 × 10^−6 and 10.0 × 10^−6 moldm^−3, respectively.

bovine serum albumin (BSA), sequence (P02769 25-607): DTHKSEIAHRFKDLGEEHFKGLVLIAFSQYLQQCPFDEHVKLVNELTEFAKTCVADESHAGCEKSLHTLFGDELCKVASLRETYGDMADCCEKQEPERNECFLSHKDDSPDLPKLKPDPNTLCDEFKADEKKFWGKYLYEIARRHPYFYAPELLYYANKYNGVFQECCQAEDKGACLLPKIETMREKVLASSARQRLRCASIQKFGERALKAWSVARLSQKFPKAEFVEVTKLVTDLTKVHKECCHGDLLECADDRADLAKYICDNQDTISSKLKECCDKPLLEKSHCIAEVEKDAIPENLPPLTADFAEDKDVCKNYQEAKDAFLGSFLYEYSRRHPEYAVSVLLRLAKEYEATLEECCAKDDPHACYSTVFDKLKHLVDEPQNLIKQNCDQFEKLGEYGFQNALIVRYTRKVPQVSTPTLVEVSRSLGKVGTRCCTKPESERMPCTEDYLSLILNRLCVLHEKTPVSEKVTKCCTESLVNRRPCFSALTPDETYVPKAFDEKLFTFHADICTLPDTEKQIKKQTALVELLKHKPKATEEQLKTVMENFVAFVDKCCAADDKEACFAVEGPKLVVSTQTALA

Substance: Lys-Dab-Dab-Gly-Orn-Pro-His-Lys-Arg-Lys-Dbt [L1]
- Stern–Volmer constant Ksv ([1]; 297 K, inner-filter corrected): 4.24 ± 0.06 × 10^4 dm^3mol^−1
- binding constant Kb ([1]; 297 K): 10.10 ± 0.24 × 10^4 dm^3mol^−1
- logKb ([1]; 297 K): 5.00 ± 0.12
- quenching rate constant kq ([1]; 297 K): 4.24 ± 0.06 × 10^12 dm^3mol^−1s^−1
- Stern–Volmer constant Ksv ([1]; 303 K): 4.03 ± 0.13 × 10^4 dm^3mol^−1
- binding constant Kb ([1]; 303 K): 6.17 ± 0.25 × 10^4 dm^3mol^−1
- logKb ([1]; 303 K): 4.79 ± 0.20
- quenching rate constant kq ([1]; 303 K): 4.03 ± 0.13 × 10^12 dm^3mol^−1s^−1
- Stern–Volmer constant Ksv ([1]; 308 K): 3.60 ± 0.06 × 10^4 dm^3mol^−1
- binding constant Kb ([1]; 308 K): 2.51 ± 0.12 × 10^4 dm^3mol^−1
- logKb ([1]; 308 K): 4.39 ± 0.21
- quenching rate constant kq ([1]; 308 K): 3.60 ± 0.06 × 10^12 dm^3mol^−1s^−1
- logKb ([2]; BSA + IBP (site II)): 4.03 ± 0.15
- logKb ([2]; BSA + PHB (site I)): 4.00 ± 0.12
